Assay results published in ChEMBL document CHEMBL2016493, “Design, synthesis, synergistic antimicrobial activity and cytotoxicity of 4-aryl substituted 3,4-dihydropyrimidinones of curcumin” (Bioorg Med Chem Lett, 2012).
Activity calls are given as the source filed them. The rule behind the calls is not given here.

Columns and labels:
Pseudomonas aeruginosa [1] = assay: Antibacterial activity against Pseudomonas aeruginosa ATCC 15499 at 20 uM/ml after 24 hrs by kirby-bauer method; format: functional
Staphylococcus aureus = assay: Antibacterial activity against Staphylococcus aureus ATCC 11632 at 160 uM/ml after 24 hrs by kirby-bauer method; format: functional
QG-56 = assay: Cytotoxicity against human QG56 cells after 48 hrs by MTT assay; format: functional, cell-based
Aspergillus flavus = assay: Antifungal activity against Aspergillus flavus MTCC 1021 at 160 uM/ml after 48 hrs by paper disc diffusion method; format: functional
Salmonella typhimurium [2] = assay: Antibacterial activity against Salmonella typhimurium ATCC 23564 at 20 uM/ml after 24 hrs by kirby-bauer method; format: functional
Aspergillus niger [3] = assay: Antifungal activity against Aspergillus niger MTCC 1108 at 20 uM/ml after 48 hrs by paper disc diffusion method; format: functional
[4] = test system: Burkholderia pseudomallei; assay: Antibacterial activity against Burkholderia pseudomallei NTCC 10274 at 160 uM/ml after 24 hrs by kirby-bauer method; format: functional; settings: NTCC 10274, 24 h, read-out: IZ
Trichoderma viride [5] = assay: Antifungal activity against Trichoderma viride MTCC 1107 at 40 uM/ml after 48 hrs by paper disc diffusion method; format: functional; settings: MTCC 1107, 48 h, read-out: IZ
Salmonella typhimurium [6] = assay: Antibacterial activity against Salmonella typhimurium ATCC 23564 at 80 uM/ml after 24 hrs by kirby-bauer method; format: functional, Salmonella enterica subsp. enterica serovar Typhimurium; settings: Salmonella enterica, ATCC 23564, 24 h; read-out: IZ
Aspergillus niger [7] = assay: Antifungal activity against Aspergillus niger MTCC 1108 at 160 uM/ml after 48 hrs by paper disc diffusion method; format: functional; settings: for zone of inhibition at 160 µM: MTCC 1108, 48 h, read-out: IZ
Escherichia coli [8] = assay: Antibacterial activity against Escherichia coli ATCC 35218 at 20 uM/ml after 24 hrs by kirby-bauer method; format: functional
Aspergillus niger [9] = assay: Antifungal activity against Aspergillus niger MTCC 1108 at 80 uM/ml after 48 hrs by paper disc diffusion method; format: functional; settings: MTCC 1108, 48 h, read-out: IZ
Curvularia lunata [10] = assay: Antifungal activity against Curvularia lunata MTCC 581 at 80 uM/ml after 48 hrs by paper disc diffusion method; format: functional; settings: MTCC 581, 48 h, read-out: IZ
Trichoderma viride [11] = assay: Antifungal activity against Trichoderma viride MTCC 1107 at 80 uM/ml after 48 hrs by paper disc diffusion method; format: functional; settings: MTCC 1107, 48 h, read-out: IZ
Salmonella typhimurium [12] = assay: Antibacterial activity against Salmonella typhimurium ATCC 23564 at 160 uM/ml after 24 hrs by kirby-bauer method; format: functional, Salmonella enterica subsp. enterica serovar Typhimurium; settings: for zone of inhibition at 160 µM: Salmonella enterica, ATCC 23564, 24 h, read-out: IZ
Curvularia lunata [13] = assay: Antifungal activity against Curvularia lunata MTCC 581 at 20 uM/ml after 48 hrs by paper disc diffusion method; format: functional; settings: MTCC 581, 48 h, read-out: IZ
Escherichia coli [14] = assay: Antibacterial activity against Escherichia coli ATCC 35218 at 160 uM/ml after 24 hrs by kirby-bauer method; format: functional; settings: ATCC 35218, 24 h, read-out: IZ
[15] = test system: Burkholderia pseudomallei; assay: Antibacterial activity against Burkholderia pseudomallei NTCC 10274 at 40 uM/ml after 24 hrs by kirby-bauer method; format: functional; settings: for zone of inhibition at 40 µM: NTCC 10274, 24 h, read-out: IZ
Pseudomonas aeruginosa [16] = assay: Antibacterial activity against Pseudomonas aeruginosa ATCC 15499 at 40 uM/ml after 24 hrs by kirby-bauer method; format: functional
Pseudomonas aeruginosa [17] = assay: Antibacterial activity against Pseudomonas aeruginosa ATCC 15499 at 160 uM/ml after 24 hrs by kirby-bauer method; format: functional; settings: for zone of inhibition at 160 µM: ATCC 15499, 24 h, read-out: IZ
Escherichia coli [18] = assay: Antibacterial activity against Escherichia coli ATCC 35218 at 40 uM/ml after 24 hrs by kirby-bauer method; format: functional
Curvularia lunata [19] = assay: Antifungal activity against Curvularia lunata MTCC 581 at 160 uM/ml after 48 hrs by paper disc diffusion method; format: functional; settings: MTCC 581, 48 h, read-out: IZ
[20] = test system: Burkholderia pseudomallei; assay: Antibacterial activity against Burkholderia pseudomallei NTCC 10274 at 80 uM/ml after 24 hrs by kirby-bauer method; format: functional; settings: NTCC 10274, 24 h, read-out: IZ
Escherichia coli [21] = assay: Antibacterial activity against Escherichia coli ATCC 35218 at 80 uM/ml after 24 hrs by kirby-bauer method; format: functional; settings: ATCC 35218, 24 h, read-out: IZ
Trichoderma viride [22] = assay: Antifungal activity against Trichoderma viride MTCC 1107 at 160 uM/ml after 48 hrs by paper disc diffusion method; format: functional; settings: MTCC 1107, 48 h, read-out: IZ
Pseudomonas aeruginosa [23] = assay: Antibacterial activity against Pseudomonas aeruginosa ATCC 15499 at 80 uM/ml after 24 hrs by kirby-bauer method; format: functional
[24] = test system: Burkholderia pseudomallei; assay: Antibacterial activity against Burkholderia pseudomallei NTCC 10274 at 20 uM/ml after 24 hrs by kirby-bauer method; format: functional; settings: for zone of inhibition at 20 µM: NTCC 10274, 24 h, read-out: IZ
Aspergillus niger [25] = assay: Antifungal activity against Aspergillus niger MTCC 1108 at 40 uM/ml after 48 hrs by paper disc diffusion method; format: functional
Salmonella typhimurium [26] = assay: Antibacterial activity against Salmonella typhimurium ATCC 23564 at 40 uM/ml after 24 hrs by kirby-bauer method; format: functional
Curvularia lunata [27] = assay: Antifungal activity against Curvularia lunata MTCC 581 at 40 uM/ml after 48 hrs by paper disc diffusion method; format: functional; settings: MTCC 581, 48 h, read-out: IZ
Trichoderma viride [28] = assay: Antifungal activity against Trichoderma viride MTCC 1107 at 20 uM/ml after 48 hrs by paper disc diffusion method; format: functional; settings: MTCC 1107, 48 h, read-out: IZ
[29] = Salmonella enterica subsp. enterica serovar Typhimurium
[30] = Salmonella enterica, ATCC 23564, 24 h, read-out: IZ

Row | Structure (SMILES) | inhibition zone (IZ) (Staphylococcus aureus) | IC50 (QG-56) [uM/ml] | inhibition zone (IZ) (Aspergillus flavus) | inhibition zone (IZ) (Aspergillus niger [3]) | zone of inhibition at 160 µM [4] [mm] | zone of inhibition (Trichoderma viride [5]) [mm] | IC50 (HCT-116) [uM/ml] | IC50 (HepG2) [uM/ml] | zone of inhibition at 80 µM (Salmonella typhimurium [6]) [mm] | zone of inhibition at 160 µM (Aspergillus niger [7]) [mm] | zone of inhibition at 80 µM (Curvularia lunata [10]) [mm] | zone of inhibition at 80 µM (Trichoderma viride [11]) [mm] | zone of inhibition at 20 µM (Curvularia lunata [13]) [mm] | zone of inhibition at 160 µM (Escherichia coli [14]) [mm] | zone of inhibition at 160 µM (Curvularia lunata [19]) [mm] | zone of inhibition at 80 µM [20] [mm] | zone of inhibition at 80 µM (Escherichia coli [21]) [mm] | zone of inhibition at 160 µM (Trichoderma viride [22]) [mm] | zone of inhibition at 40 µM (Curvularia lunata [27]) [mm] | zone of inhibition at 20 µM (Trichoderma viride [28]) [mm] | further results
1 | COc1cc(/C=C/C(=O)C2=C(/C=C/c3ccc(O)c(OC)c3)NC(=O)NC2c2ccc(C)cc2)ccc1O (stereo not drawn) | inactive | 100 | inactive | inactive | 10 | 15 | 50 | 50 | 9 | 12 | 18 | 16 | 12 | 11 | 22 | 9 | 9 | 18 | 16 | 12 | inhibition zone (IZ) (Pseudomonas aeruginosa [1]): inactive; inhibition zone (IZ) (Salmonella typhimurium [2]; [29]): inactive; inhibition zone (IZ) (Escherichia coli [8]): inactive; zone of inhibition at 80 µM (Aspergillus niger [9]): 9 mm; zone of inhibition at 160 µM (Salmonella typhimurium [12]): 11 mm; inhibition zone (IZ) [15]: inactive; inhibition zone (IZ) (Pseudomonas aeruginosa [16]): inactive; zone of inhibition at 160 µM (Pseudomonas aeruginosa [17]): 10 mm; inhibition zone (IZ) (Escherichia coli [18]): inactive; inhibition zone (IZ) (Pseudomonas aeruginosa [23]): inactive; inhibition zone (IZ) [24]: inactive; inhibition zone (IZ) (Aspergillus niger [25]): inactive; inhibition zone (IZ) (Salmonella typhimurium [26]; [29]): inactive
2 | COc1cccc2c1C(=O)c1c(O)c3c(c(O)c1C2=O)C[C@@](O)(C(=O)CO)C[C@@H]3O[C@H]1C[C@H](N)[C@H](O)[C@H](C)O1 [DOXORUBICIN] | – | 2.5 | – | – | – | – | 5 | 2.5 | – | – | – | – | – | – | – | – | – | – | – | – | –
3 | COc1ccc(C2NC(=O)NC(/C=C/c3ccc(O)c(OC)c3)=C2C(=O)/C=C/c2ccc(O)c(OC)c2)cc1 (stereo not drawn) | inactive | 50 | inactive | inactive | 23 | 16 | 100 | 50 | – | 11 | 16 | 17 | 11 | 12 | 17 | 19 | 9 | 19 | 14 | 14 | zone of inhibition at 20 µM (Pseudomonas aeruginosa [1]; ATCC 15499, 24 h, read-out: IZ): 13 mm; inhibition zone (IZ) (Escherichia coli [8]): inactive; zone of inhibition at 80 µM (Aspergillus niger [9]): 9 mm; inhibition zone (IZ) (Salmonella typhimurium [12]; [29]): inactive; zone of inhibition at 40 µM [15]: 15 mm; zone of inhibition at 40 µM (Pseudomonas aeruginosa [16]; ATCC 15499, 24 h, read-out: IZ): 19 mm; zone of inhibition at 160 µM (Pseudomonas aeruginosa [17]): 23 mm; inhibition zone (IZ) (Escherichia coli [18]): inactive; zone of inhibition at 80 µM (Pseudomonas aeruginosa [23]; ATCC 15499, 24 h, read-out: IZ): 21 mm; zone of inhibition at 20 µM [24]: 11 mm; inhibition zone (IZ) (Aspergillus niger [25]): inactive
4 | COc1cc(/C=C/C(=O)C2=C(/C=C/c3ccc(O)c(OC)c3)NC(=O)NC2c2ccc(O)c(OC)c2)ccc1O (stereo not drawn) | inactive | 50 | inactive | – | 16 | 16 | 100 | 25 | 19 | – | 18 | 18 | 13 | 19 | 21 | 16 | 17 | 21 | 17 | 15 | zone of inhibition at 20 µM (Salmonella typhimurium [2]; [30]): 13 mm; inhibition zone (IZ) (Aspergillus niger [7]): inactive; zone of inhibition at 20 µM (Escherichia coli [8]; ATCC 35218, 24 h, read-out: IZ): 11 mm; zone of inhibition at 160 µM (Salmonella typhimurium [12]): 22 mm; zone of inhibition at 40 µM [15]: 14 mm; inhibition zone (IZ) (Pseudomonas aeruginosa [17]): inactive; zone of inhibition at 40 µM (Escherichia coli [18]; ATCC 35218, 24 h, read-out: IZ): 14 mm; zone of inhibition at 20 µM [24]: 10 mm; zone of inhibition at 40 µM (Salmonella typhimurium [26]; [30]): 16 mm
